# Source: patent US7858738B2, “Synthetic human peptides and pharmaceutical compositions comprising them for the treatment of systemic lupus erythematosus” (Yeda Research and Development Co., Ltd., priority 2001, dated 2010)
# Tests used:
# BALB/c-derived LNCs = experiment: In vivo inhibition of proliferation of LNC of BALB/c mice immunized with mCDR1; details: maximum % inhibition; 200 μg s.c. in PBS concomitant with immunization; LNC tested ten days later
# Description: To this end, BALB/c and SJL mice were immunized with mCDR1 and mCDR3, respectively. The immunizing murine peptides were injected (10 μg/mouse) in CFA intradermally in the hind footpads. Concomitant with the immunization, groups of BALB/c mice were injected subcutaneously (s.c.) with 200 μg in PBS of hCDR1 and groups of SJL mice were similarly injected with hCDR3. Ten days after the immunization, mice were sacrificed and their lymph nodes were harvested and the cells were tested for their ability to proliferate following triggering with the immunizing peptides. Briefly, LNCs of immunized mice (0.5×10^6/well) were cultured (in triplicates) in the presence of different concentrations (1-20 μg/well) of the murine immunizing peptides in enriched RPMI-1640 medium supplemented with 1% normal mouse serum. Following four days of incubation, ^3H-thymidine was added for additional 16 hours. Cells were then harvested and radioactivity was counted using a β-counter.
# The inhibition was calculated based on the proliferation of LNCs of mice that were not treated with the inhibitory peptides hCDR1 and hCDR3. It can be seen that hCDR1 and hCDR3 were capable of inhibiting the proliferative responses to the immunizing murine CDR peptides.
# [1] = tested on: lymph node cells of the BALB/c mice; experiment: Cytokine production by 16/6Id-stimulated LNC of treated BALB/c mice (ELISA); assay type: in vivo; details: BALB/c mice immunized with 16/6Id, hCDR1 50 μg, LNC stimulated with 16/6Id
# Description: Induction and treatment of experimental SLE. In order to induce experimental SLE, BALB/c mice were immunized with 1-2 μg of the human mAb 16/6Id and boosted 3 weeks later. For the prevention of experimental SLE, mice were given hCDR1 or hCDR3 (mCDR1 or revmCDR1 as control peptide in Example 12) intravenously (i.v.) or s.c. concomitant with the immunization, and were injected weekly thereafter for 5 weeks. Treatment of an established disease started three and a half months following disease induction with the 16/6Id, when clinical manifestations were already observed. In Example 12, mice received 10 weekly injections (i.v. or s.c.) of mCDR1 or revmCDR1 at a dose of 100 μg/mouse. Prevention and treatment of SLE-like disease in (NZB×NZW)F1 mice with the hCDR1 or mCDR1 peptide. For prevention of SLE, mice at the age of 2 months, before disease manifestations are observed, were injected s.c. with hCDR1 (or mCDR1 in Example 12, 250 μg/mouse) once a week for 10 weeks. To treat an established disease, mice at the age of 5-7 months were injected with hCDR1 (in Example 12, mCDR1 s.c., 250 μg/mouse) once a week for 10 weeks. Proliferative Responses. PBL were isolated from heparinized venous blood by Ficoll-Hypaque (Pharmacia) density-gradient centrifugation. […] Results are expressed as the mean thymidine incorporation in counts per minute (CPM) of triplicate culture±SD, or as stimulation index (S.I.; the ratio of mean CPM at the optimal concentration of the human 16/6Id to the mean CPM in the presence of medium alone). […] TGF-β was determined by an ELISA. […] The substrate solution used was TMB color Reagent (Helix Diagnostics, West Sacramento, Calif.), and enzyme activity was evaluated by using 570- and 630-nm filters. […] Proteinuria was measured semiquantitatively by using Combistix kit (Ames Division, Bayer Diagnostics, Newbury, U.K.). White blood cells (WBC, for leukopenia) were counted after a 10-fold dilution of heparinized blood in distilled water containing 1% acetic acid (vol/vol). […]
# [2] = tested on: lymph node cultures of BALB/c mice; experiment: Cytokines in supernatants of 16/6Id-stimulated lymph node cultures of BALB/c mice with experimental SLE; assay type: in vivo; details: after 10 treatment injections
# Description: Induction and treatment of experimental SLE. In order to induce experimental SLE, BALB/c mice were immunized with 1-2 μg of the human mAb 16/6Id and boosted 3 weeks later. For the prevention of experimental SLE, mice were given hCDR1 or hCDR3 (mCDR1 or revmCDR1 as control peptide in Example 12) intravenously (i.v.) or s.c. concomitant with the immunization, and were injected weekly thereafter for 5 weeks. Treatment of an established disease started three and a half months following disease induction with the 16/6Id, when clinical manifestations were already observed. In Example 12, mice received 10 weekly injections (i.v. or s.c.) of mCDR1 or revmCDR1 at a dose of 100 μg/mouse. Prevention and treatment of SLE-like disease in (NZB×NZW)F1 mice with the hCDR1 or mCDR1 peptide. For prevention of SLE, mice at the age of 2 months, before disease manifestations are observed, were injected s.c. with hCDR1 (or mCDR1 in Example 12, 250 μg/mouse) once a week for 10 weeks. To treat an established disease, mice at the age of 5-7 months were injected with hCDR1 (in Example 12, mCDR1 s.c., 250 μg/mouse) once a week for 10 weeks. Proliferative Responses. PBL were isolated from heparinized venous blood by Ficoll-Hypaque (Pharmacia) density-gradient centrifugation. All assays were performed, in triplicate, in flat-bottomed microtiter plates (Falcon, Becton Dickinson, Oxmard, Calif., USA) in which 2×10^5 PBL were cultured in enriched RPMI-1640 as described (Dayan et al., 2000). The PBL were exposed to various concentrations (0.1-40 μg/well) of the human anti-DNA 16/6Id mAb with and without the addition of the various CDR-based peptides at a concentration of at least 10-fold excess over that of the 16/6Id. Phytohemagglutinin (PHA; 2 μg/well) was used as a control for culture conditions at each experiment. The cultures were incubated in 7.5% CO2 at 37° C. for 6 days. Eighteen hours before the cells were harvested, [^3H]-thymidine (0.5μ Ci of 5 Ci/mmol) (Nuclear Research Center, Negev, Israel) was added to all cultures. Results are expressed as the mean thymidine incorporation in counts per minute (CPM) of triplicate culture±SD, or as stimulation index (S.I.; the ratio of mean CPM at the optimal concentration of the human 16/6Id to the mean CPM in the presence of medium alone). […] TGF-β was determined by an ELISA. […] The substrate solution used was TMB color Reagent (Helix Diagnostics, West Sacramento, Calif.), and enzyme activity was evaluated by using 570- and 630-nm filters. […] Proteinuria was measured semiquantitatively by using Combistix kit (Ames Division, Bayer Diagnostics, Newbury, U.K.). White blood cells (WBC, for leukopenia) were counted after a 10-fold dilution of heparinized blood in distilled water containing 1% acetic acid (vol/vol). […]
# SJL-derived LNC = experiment: In vivo inhibition of proliferation of SJL LNC to the human 16/6Id mAb; design: species or system mice; details: maximum % inhibition; 200 μg/mouse s.c. in PBS concomitant with priming
# Description: Because our aim was to test the inhibitory capacity of the peptides based on the CDR of the human 16/6Id autoantibody, it was of importance to find out whether peptides hCDR1 and hCDR3 are capable of inhibiting the priming to the whole molecule of the human 16/6Id mAb. To this end, BALB/c and SJL mice were primed with the human 16/6Id mAb (2 μg/mouse) in CFA intradermally in the hind footpads. The priming was done concomitant with the s.c. administration in PBS of 200 μg/mouse of hCDR1 to groups of BALB/c mice and of hCDR3 to SJL mice. Ten days following immunization, the mice were sacrificed and their LNCs were tested in vitro for their ability to proliferate to different concentrations (0.1-10 μg/well) of the human anti-DNA 16/6Id mAb.
# The results are presented as maximum % inhibition of the proliferation to the immunizing human 16/6Id mAb of lymph node cells of mice immunized and treated with the peptides hCDR1 and hCDR3 as compared with mice that were immunized with the 16/6Id mAb but were not treated with the peptides.
Sequence,% Inhibition of the proliferation of BALB/c-derived LNCs to mCDR1 (BALB/c-derived LNCs),production of INF-γ ([1]; FIG. 3A),secretion of TGF-β ([1]; FIG. 3B),secretion of IL-10 ([1]; FIG. 3C),"levels of TGF-β ([2]; FIG. 15D, 15E (spleen cells))","INF-γ in supernatants of 16/6Id stimulated lymph node cultures ([2]; both doses (200 and 300 μg), FIG. 15A)","TNF-α in supernatants of 16/6Id stimulated lymph node cultures ([2]; both doses (200 and 300 μg), FIG. 15B)","IL-10 in supernatants of 16/6Id stimulated lymph node cultures ([2]; both doses (200 and 300 μg), FIG. 15C)",% Inhibition of the proliferation of SJL-derived LNC to the human 16/6Id mAb (SJL-derived LNC)
"GYYWSWIRQPPGKGEEWIG (Human) [hCDR1, 19-mer peptide based on the CDR1 of the heavy chain of the human 16/6Id mAb]",55%,down-regulated,up-regulated,up-regulated,up-regulated,down regulated,down regulated,down regulated,
"YYCARGLLRGGWNDVDYYGMDV (Human) [hCDR3, peptide based on the CDR3 of the heavy chain of the human 16/6Id mAb]",,,,,,,,,68%
